Values quoted from earlier work, collected in patent US7935348B2, “Combination therapy for the treatment of Alzheimer's disease” (Affiris Forschungs-und Entwicklungs GmbH, priority 2004, dated 2011).
“Also recorded” adds a separate entry of the source.

Experiments:
Aβ = details: for Aβ amount in the brain: peripheral treatment
Aβ, sequence (P05067 672-711 limits assumed): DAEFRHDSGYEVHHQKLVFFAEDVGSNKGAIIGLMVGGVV

Substance	Aβ content in the plasma (Aβ; peripheral administration)	Aβ amount in the brain (Aβ)	AD-type neuropathologies (PDAPP transgenic mouse; immunization of young animals, before onset (6 weeks))	AD-like neuropathologies (PDAPP transgenic mouse; treatment of older animals (11 months))
gelsolin	not reduced; also recorded: increased Aβ content in the plasma	reduction of the Aβ amount in the brain	–	–
GM1	–	reduction of the Aβ amount in the brain	–	–
aggregated Aβ42: aggregated 42-amino acid form of amyloid-β peptide used as a "normal", not mimotope-based vaccine	–	–	prevented the development of plaque formation, neuritic dystrophy and astrogliosis	markedly reduced AD-like neuropathologies
